Patent US20060167068A1, “Method of treating self-injurious behavior with glutamate modulating agents” (priority 2005, published 2006)

Assay: Case reports: glutamate modulating agent added to medication of patients with borderline personality disorder and self-injurious behavior
Assay type: in vivo, human
Text: We describe two patients with borderline personality disorder and prominent cutting behaviors refractory to psychopharmacologic interventions.
Patient 1 was a person with a history of post-traumatic stress disorder and borderline personality disorder. […] They were previously treated with intensive psychotherapy, cognitive behavioral therapy, and pharmacotherapy. Medication management included treatment trials, either alone or in combination, of the following medications: CELEXA (citraloprom HBr), PROZAC (fluoxetine HCl), REMERON (mirtazapine), ZYPREXA (olanzapine), KLONOPIN (clonazepam), LAMICTAL (lamotrigine), RISPERDAL (risperidone), Abilify (aripiprazole), EFFEXOR (venlafaxine HCl), XANAX (alprazolam), WELLBUTRIN (bubroprion HCl), and ATIVAN (lorazepam). Medications provided little relief and their cutting behaviors continued on a daily to weekly basis. Riluzole, a glutamate modulating agent, was added to their medication regimen which consisted of LEXAPRO (escitalopram) 20 mg a day and KLONOPIN 1 mg at bedtime. Riluzole was dosed at 50 mg twice a day. […] This attenuation in their self-injurious behaviors occurred between week 2 and 3 of treatment with riluzole.
Despite the beneficial effects of riluzole with regard to the cutting/self-injurious behaviors (as well as cravings to cut), Patient 1 requested to stop the riluzole secondary to the sedation. Within 1 week of stopping the riluzole, their desire and cravings to cut returned. They were then treated with N-Acetyl Cysteine (NAC), another agent thought to modulate glutamatergic function.
Patient 2 was a person with a long history of borderline personality disorder, major depression, obsessive-compulsive disorder and generalized anxiety disorder. […] These self-injurious behaviors and the cravings to cut worsened under times of stress. They were previously treated with intensive psychotherapy, cognitive behavioral therapy, and pharmacotherapy. Medication management included treatment trials, either alone or in combination, of the following medications: EFFEXOR, ZOLOFT (sertaline HCl), TOPAMAX (topirimate), ATIVAN (lorazepam), trazodone, ABILIFY AND NEURONTIN (gabapentin). Riluzole, a glutamate modulating agent, was added to their medication regimen which consisted of ZOLOFT 200 mg each day, RISPERDAL (risperidone) 2 mg at bedtime, KLONOPIN 1 mg three times per day and PROVIGIL (modafinil) 200 mg a day. Riluzole was dosed at 50 mg twice a day. […] Similar to the first case, the cessation in self-injurious behaviors occurred between week 2 and 3 of treatment with riluzole.

[1] = Patient 1, riluzole 50 mg twice a day

CC(=O)N[C@@H](CS)C(=O)O [NAC, N-Acetyl Cysteine]
time of treatment until desire to cut remitted (Patient 1, NAC after stopping riluzole): ≤ 2 weeks
period without any self-injurious behaviors (Patient 1, on NAC): over three months
self-injurious cravings (self-report) (Patient 1, on NAC, desire to cut not completely eradicated as while on riluzole): significantly attenuated

Nc1nc2ccc(OC(F)(F)F)cc2s1 [riluzole, Riluzole]
time after stopping treatment until desire and cravings to cut returned (Patient 1, after stopping riluzole): ≤ 1 week
adverse effect while on treatment [1]: significant sedation
time on treatment without a single episode or desire to harm themself [1]: approximately eight weeks
cravings to cut / self-injurious behaviors (patient report) (Patient 1, riluzole 50 mg twice a day added to LEXAPRO 20 mg a day and KLONOPIN 1 mg at bedtime): complete cessation of cravings to cut
period without any self-injurious behaviors (Patient 2, riluzole 50 mg twice a day): over six months
desire to engage in self-injurious behaviors (patient report) (Patient 2, riluzole 50 mg twice a day added to ZOLOFT 200 mg, RISPERDAL 2 mg, KLONOPIN 1 mg three times per day, PROVIGIL 200 mg): complete cessation
self-injurious behavior (both cases (two patients with borderline personality disorder and cutting behaviors refractory to psychopharmacologic interventions), after initiating riluzole): significantly decreased
